One assay concerns the target T1, Aiolos (Homo sapiens, UniProt Q96SW2+Q9UKT9).
T1 construct: expressed in transfected cells; host or cells: DF15 multiple myeloma cells
Nature of the assay: Aiolos degradation, ePL luminescence assay in DF15 cells expressing ePL-tagged Aiolos. In kind it is cell-based. Particulars: for DC50: read-out: Degradation of Aiolos IC50, DF15 cells. The procedure: FIG. 1 illustrates that Compound 2 and Compound 3 degraded Aiolos protein in a time and concentration dependent manner. DF15 cells expressing Enhanced ProLabel (ePL)-tagged Aiolos were incubated with Compound 2 (triangle) or Compound 3 (square) for 45 minutes, 90 minutes, or 3 hours at the indicated concentrations. Cell extracts were then generated and the amount of Aiolos-ePL protein was determined by ePL luminescence assay.
The relative effectiveness of Compound 2 and Compound 3 to promote the destruction of Aiolos protein by the CRL4^CRBN E3 ubiquitin ligase was investigated in DF15 myeloma cells at different time points (45 minutes, 90 minutes, and 3 hours). DF15 cells expressing Enhanced ProLabel (ePL)-tagged Aiolos were incubated with Compound 2 or Compound 3 for 45 minutes, 90 minutes, or 3 hours. Cell extracts were then generated and the amount of Aiolos ePL protein was determined by ePL luminescence assay. Values shown in Table 1 correspond to data presented in FIG. 1 for Aiolos content vs. concentration.

The subject of the next assay is OPM2 cells. Kind of assay: cells. In kind it is cell-based, human. The conditions noted are these: Homo sapiens, read-out: Inhibition of Proliferation of OPM2 Cells IC50. The procedure:
The effect of the stabilizing mutations on cell proliferation was also measured.

Where two headings read alike, the source gives them in different places. Where only a bound is given, the exact number is not on record here.

T1 sequence (Q9UKT9 whole entry): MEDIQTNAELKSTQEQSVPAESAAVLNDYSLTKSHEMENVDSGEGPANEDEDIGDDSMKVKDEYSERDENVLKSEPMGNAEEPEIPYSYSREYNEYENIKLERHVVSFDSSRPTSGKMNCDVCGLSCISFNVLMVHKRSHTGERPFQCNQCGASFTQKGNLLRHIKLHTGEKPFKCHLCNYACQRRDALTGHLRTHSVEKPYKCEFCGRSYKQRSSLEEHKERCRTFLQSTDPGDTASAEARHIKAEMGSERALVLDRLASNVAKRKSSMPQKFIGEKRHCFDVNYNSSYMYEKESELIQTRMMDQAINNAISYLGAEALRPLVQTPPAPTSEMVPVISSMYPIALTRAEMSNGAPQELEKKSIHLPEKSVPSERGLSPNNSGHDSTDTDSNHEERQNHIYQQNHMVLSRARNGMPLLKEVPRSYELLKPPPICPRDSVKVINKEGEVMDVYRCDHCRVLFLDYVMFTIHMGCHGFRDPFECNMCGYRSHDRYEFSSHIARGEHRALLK
T1 sequence (Q96SW2 whole entry): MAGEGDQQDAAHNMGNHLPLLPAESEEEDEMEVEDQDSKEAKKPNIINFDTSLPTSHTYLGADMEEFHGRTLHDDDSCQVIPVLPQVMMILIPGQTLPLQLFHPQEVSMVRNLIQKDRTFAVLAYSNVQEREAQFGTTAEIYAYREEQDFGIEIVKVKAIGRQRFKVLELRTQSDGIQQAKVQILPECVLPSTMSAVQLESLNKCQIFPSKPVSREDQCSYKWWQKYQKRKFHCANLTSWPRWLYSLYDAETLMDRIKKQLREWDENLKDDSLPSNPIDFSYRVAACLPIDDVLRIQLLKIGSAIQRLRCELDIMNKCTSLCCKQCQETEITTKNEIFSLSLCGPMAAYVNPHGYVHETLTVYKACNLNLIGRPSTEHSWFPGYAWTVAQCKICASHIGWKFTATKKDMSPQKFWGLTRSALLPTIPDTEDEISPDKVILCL
T1 sequence (Q16531 2-1140, further chain): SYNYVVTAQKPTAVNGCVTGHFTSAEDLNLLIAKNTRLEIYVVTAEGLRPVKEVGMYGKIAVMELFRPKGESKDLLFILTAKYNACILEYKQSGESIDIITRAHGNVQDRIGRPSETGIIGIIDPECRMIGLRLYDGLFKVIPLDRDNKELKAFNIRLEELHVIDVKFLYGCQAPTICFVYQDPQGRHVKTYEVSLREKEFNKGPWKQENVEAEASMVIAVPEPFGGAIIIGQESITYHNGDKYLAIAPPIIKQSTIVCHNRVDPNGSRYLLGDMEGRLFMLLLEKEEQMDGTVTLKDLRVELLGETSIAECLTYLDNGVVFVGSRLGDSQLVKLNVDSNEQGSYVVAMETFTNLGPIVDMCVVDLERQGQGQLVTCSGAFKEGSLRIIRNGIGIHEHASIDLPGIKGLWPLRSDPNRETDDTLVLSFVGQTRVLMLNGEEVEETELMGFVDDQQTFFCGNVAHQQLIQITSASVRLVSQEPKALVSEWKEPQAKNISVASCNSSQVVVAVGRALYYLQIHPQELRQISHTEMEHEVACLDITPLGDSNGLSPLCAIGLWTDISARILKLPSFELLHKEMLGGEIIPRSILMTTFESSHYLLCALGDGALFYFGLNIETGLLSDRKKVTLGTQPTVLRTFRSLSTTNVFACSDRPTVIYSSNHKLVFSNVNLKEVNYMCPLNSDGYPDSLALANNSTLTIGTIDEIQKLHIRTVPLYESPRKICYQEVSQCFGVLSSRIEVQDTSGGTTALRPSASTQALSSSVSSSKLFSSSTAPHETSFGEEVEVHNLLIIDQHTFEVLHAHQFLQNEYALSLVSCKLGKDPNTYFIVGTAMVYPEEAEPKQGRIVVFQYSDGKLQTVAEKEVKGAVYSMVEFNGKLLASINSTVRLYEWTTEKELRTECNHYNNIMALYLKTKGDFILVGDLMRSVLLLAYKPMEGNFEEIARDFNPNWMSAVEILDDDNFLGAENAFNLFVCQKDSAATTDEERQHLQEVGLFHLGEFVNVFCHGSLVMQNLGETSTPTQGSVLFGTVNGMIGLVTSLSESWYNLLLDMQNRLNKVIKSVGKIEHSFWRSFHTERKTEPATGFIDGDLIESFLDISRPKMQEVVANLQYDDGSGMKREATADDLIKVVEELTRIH

`N#Cc1ccc(N2CCN(Cc3ccc(COc4cccc5c4CN([C@@H]4CCC(=O)NC4=O)C5=O)cc3)CC2)c(F)c1` [Compound 3, (R)-4-(4-(4-(((2-(2,6-dioxopiperidin-3-yl)-1-oxoisoindolin-4-yl)oxy)methyl)benzyl)piperazin-1-yl)-3-fluorobenzonitrile]: the “manner of Aiolos degradation” value on Aiolos (45 minutes, 90 minutes, 3 hours) was “time-dependent and concentration-dependent”. In addition, at Aiolos (DF15, read-out: inhibition at 0.001 μM), the inhibition – broadly, the drop in the measured response relative to a control, in per cent – at 0.001 µM came to 13%. Moreover, the DC50 on Aiolos (45 minutes incubation) is above 100 nM; at Aiolos (90 minutes incubation) it was 5.9 nM; at Aiolos (3 hours incubation), 0.45 nM.

On to `Nc1cccc2c1C(=O)N(C1CCC(=O)NC1=O)C2=O` (stereo not drawn) [Pomalidomide, pomalidomide, reference compound], for which the IC50 in the assay on OPM2 cells (OPM-2, Parental) was 64 nM; in the assay with OPM2 cells (OPM-2, overexpressing Aiolos Q147H), 56 nM; in the assay with OPM2 cells (OPM-2, overexpressing Aiolos), 89 nM; with OPM2 cells (OPM-2, overexpressing Ikaros-G151A) it was above 100 nM; with OPM2 cells (OPM-2, overexpressing Ikaros-Q146H), above 100 nM; in the assay on OPM2 cells (OPM-2, overexpressing Ikaros) it was 91 nM. Further, the IC50 in the assay on OPM2 cells (OPM-2, overexpressing ZFP91-Q400H) came out at 73 nM.

For the origin of these results see US12510533B2, “Methods for treating multiple myeloma and the use of companion biomarkers for 4-(4-(4-(((2-(2,6-dioxopiperidin-3-yl)-1-oxoisoindolin-4-yl)oxy)methyl)benzyl)piperazin-1-yl)-3-fluorobenzonitrile” (Celgene Corporation, priority 2018, dated 2025).
